Assay results from publication PMC12631574, “Structure–activity relationships of hydrophobic small molecule irreversible inhibitors of tissue transglutaminase” (RSC Medicinal Chemistry, 2025).

Molecular target: T1, tissue transglutaminase (TG2), C-terminal His-tag TG2 (Homo sapiens, UniProt P21980)
T1 construct: host or cells: Novagen Rosetta 2 (DE3) E. coli
T1 sequence (P21980 1-687): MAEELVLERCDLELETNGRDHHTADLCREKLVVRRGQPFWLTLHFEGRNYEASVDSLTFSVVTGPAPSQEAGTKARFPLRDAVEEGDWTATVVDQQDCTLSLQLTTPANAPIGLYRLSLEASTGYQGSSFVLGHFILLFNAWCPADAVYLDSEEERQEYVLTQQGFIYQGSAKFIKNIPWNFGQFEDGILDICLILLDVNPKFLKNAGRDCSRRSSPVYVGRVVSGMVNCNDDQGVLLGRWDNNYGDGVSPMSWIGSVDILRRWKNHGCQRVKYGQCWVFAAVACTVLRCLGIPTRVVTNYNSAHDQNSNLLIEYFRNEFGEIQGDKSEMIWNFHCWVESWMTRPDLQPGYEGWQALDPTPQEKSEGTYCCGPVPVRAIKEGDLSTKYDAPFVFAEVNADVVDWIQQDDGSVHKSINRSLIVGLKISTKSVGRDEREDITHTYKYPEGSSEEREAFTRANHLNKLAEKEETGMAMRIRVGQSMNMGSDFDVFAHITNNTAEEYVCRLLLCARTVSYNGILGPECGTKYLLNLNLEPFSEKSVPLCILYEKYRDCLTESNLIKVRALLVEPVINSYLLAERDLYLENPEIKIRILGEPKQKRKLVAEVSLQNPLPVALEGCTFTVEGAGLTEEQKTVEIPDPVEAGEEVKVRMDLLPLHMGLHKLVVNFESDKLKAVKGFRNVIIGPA
Assay: continuous AL5 hydrolysis assay of irreversible TG2 inhibition (kobs vs [I]/α)
Type: biochemical

[1] = irreversible inhibition, AL5 100 μM, pH 6.9, 25 °C, triplicate
[2] = supplement, kinetics data and fitting

Structure (SMILES)	kinact [s⁻¹]	KI (inactivation) [1] [µM]	KI (inactivation) [2] [µM]	kinact/KI [2]
C=CC(=O)NCC(=O)N1CCN(C(=O)c2cccc(Cc3ccccc3)c2)CC1 [Compound 22d, N-2-[4-[((3-benzylphenyl)carbonyl)-1-piperazinyl]-2-oxoethyl]propenamide]	0.0168	8.8 ± 2.7	8.84 ± 2.72	114 ± 38 × 103 M-1min-1
C=CC(=O)NCC(=O)N1CCN(C(=O)c2ccc(-c3ccccc3)cc2)CC1 [Compound 7c, N-2-[4-[((4-Biphenyl)carbonyl)-1-piperazinyl]-2-oxoethyl]propenamide]	0.0118	41.1 ± 32.2	41.1 ± 32.3	17.2 ± 15.5 × 103 M-1min-1
C=CC(=O)NCC(=O)N1CCN(C(=O)C2CCCCCC2)CC1 [Compound 6e, N-2-[4-[(Cycloheptanecarbonyl)-1-piperazinyl]-2-oxoethyl]propenamide]	0.0099	21.5 ± 11	21.5 ± 11	27.6 ± 16.1 × 103 M-1min-1
C=CC(=O)NCC(=O)N1CCN(C(=O)c2ccc(Cc3ccccc3)cc2)CC1 [Compound 22g, N-2-[4-[((4-Benzylphenyl)carbonyl)-1-piperazinyl]-2-oxoethyl]propenamide]	0.0253	58.1 ± 9.4	58.1 ± 9.4	26.1 ± 4.9 × 103 M-1min-1
C=CC(=O)NCC(=O)N1CCN(C(=O)c2cccc(Oc3ccccc3)c2)CC1 [Compound 22e, N-2-[4-[((3-Phenoxyphenyl)carbonyl)-1-piperazinyl]-2-oxoethyl]propenamide]	0.0223	11.9 ± 4	11.9 ± 4	112 ± 41 × 103 M-1min-1
C=CC(=O)NCC(=O)N1CCN(C(=O)c2ccccc2)CC1 [Compound 6f, N-2-[4-[(Benzoyl)-1-piperazinyl]-2-oxoethyl]propenamide]	0.00827	8.1 ± 2.5	8.12 ± 2.47	61.1 ± 20.0 × 103 M-1min-1
C=CC(=O)NCC(=O)N1CCN(C(=O)c2ccccc2-c2ccccc2C)CC1 [Compound 21a, N-2-[4-[((2′-Methyl-2-biphenyl)carbonyl)-1-piperazinyl]-2-oxoethyl]propenamide]	0.00955	4.8 ± 1	4.85 ± 1.02	118 ± 27 × 103 M-1min-1
C=CC(=O)NCC(=O)N1CCN(C(=O)c2ccccc2-c2ccccc2)CC1 [Compound 7a, N-2-[4-[((2-Biphenyl)carbonyl)-1-piperazinyl]-2-oxoethyl]propenamide]	0.00958	3.2 ± 1	3.23 ± 1.14	178.0 ± 68.6 × 103 M-1min-1
C=CC(=O)NCC(=O)N1CCN(C(=O)c2cccc(-c3ccccc3)c2)CC1 [Compound 7b, N-2-[4-[((3-Biphenyl)carbonyl)-1-piperazinyl]-2-oxoethyl]propenamide]	0.0118	5.3 ± 1.4	5.29 ± 1.39	133.9 ± 38.4 × 103 M-1min-1
C=CC(=O)NCC(=O)N1CCN(C(=O)C2CC2)CC1 [Compound 6a, N-2-[4-[(Cyclopropanecarbonyl)-1-piperazinyl]-2-oxoethyl]propenamide]	0.00593	23.5 ± 6.5	23.5 ± 6.5	15.2 ± 4.6 × 103 M-1min-1
C=CC(=O)NCC(=O)N1CCN(C(=O)C2CCC2)CC1 [Compound 6b, N-2-[4-[(Cyclobutanecarbonyl)-1-piperazinyl]-2-oxoethyl]propenamide]	0.00842	20.2 ± 3.5	20.2 ± 3.5	25.0 ± 4.7 × 103 M-1min-1
C=CC(=O)NCC(=O)N1CCN(C(=O)c2cccc(-c3ccc(C)cc3)c2)CC1 [Compound 21f, N-2-[4-[((4′-Methyl-3-biphenyl)carbonyl)-1-piperazinyl]-2-oxoethyl]propenamide]	0.0092	2.3 ± 0.6	2.29 ± 0.66	241 ± 74 × 103 M-1min-1
